{
  "source": "paper PMC3479105",
  "about": "“K-134, a Phosphodiesterase 3 Inhibitor, Prevents Brain Damage by Inhibiting Thrombus Formation in a Rat Cerebral Infarction Model” (PLoS ONE, 2012)",
  "key": {"[1]": {"tested_on": "platelet aggregation ex vivo", "assay": "Platelet aggregation ex vivo in rats after oral dosing", "settings": "Rattus norvegicus, 300 mg/kg oral, 3 h after administration", "protocol": "Cilostazol was orally administered to rats under non-fasting conditions in a single dose. […] Platelet-rich plasma (PRP) was prepared by centrifugation (450 × g, 8 min, 25°C) of blood. PRP was stimulated with adenosine diphosphate (ADP) (final concentration = 4 µM; MC Medical Inc., Tokyo, Japan) or collagen (final concentration = 5 µg/mL; MC Medical Inc.). Platelet aggregation was quantified by measuring the area under the curve (AUC) during the 5 or 7 min after addition of ADP or collagen, respectively, using a light transmittance aggregometer (Hema Tracer 313M; MC Medical Inc.)."}, "[2]": {"assay": "Pharmacokinetics of cilostazol and its active metabolites in rats", "format": "in vivo, rat", "settings": "single oral cilostazol 300 mg/kg, non-fasting male SD rats, n = 3, parent and metabolites", "protocol": "Pharmacokinetic variables (Cmax, AUC, Tmax and T1/2) were calculated from the plasma drug concentration-time curve. Cilostazol was orally administered to rats under non-fasting conditions at a single dose of 300 mg/kg to determine the concentration-time profile in serum (n = 3). Values are means (± SEM). […]"}, "[3]": {"set-up": "method as in PMID 10702882", "settings": "human healthy male, single dose 100 mg of cilostazol, cited from earlier work"}, "[4]": {"tested_on": "mouse platelet aggregation", "assay": "Mouse platelet aggregation in vitro (PRP, aggregometer)", "format": "cell-based", "protocol": "Platelet-rich plasma (PRP) was prepared by centrifugation (900 rpm, 15 min, at room temperature) of blood (05PR-22 centrifuge with a 03 rotor; Hitachi, Ltd., Tokyo, Japan), and the platelet count was adjusted to 5×10^5/µL with platelet-poor plasma prepared by centrifugation (3000 rpm, 10 min, at room temperature). PRP was incubated with antiplatelet agents at 37°C for 3 min and stimulated with collagen (final concentration, 15 µg/mL; MC Medical Inc., Tokyo, Japan) or adenosine diphosphate (ADP) (final concentration, 7.5 µM; MC Medical Inc.) (n = 5). Platelet aggregation was quantified by measuring the area under the curve (AUC) during the 5-min period after addition of trigger using a light transmittance aggregometer (PAM-8C; Mebanix Co., Ltd., Tokyo, Japan)."}, "bleeding time": {"tested_on": "bleeding time", "assay": "Tail bleeding time in mice", "format": "in vivo, mouse", "settings": "single oral 30 mg/kg, 10 min before test, control 110±5 s, not significant", "protocol": "K-134 and warfarin (Sigma Aldrich Co., MO, USA) were suspended and dissolved in 1% HPMC, respectively, and orally administered to ICR mice at 10 min or 24 h before testing of bleeding, respectively. Each mouse was placed in a restrainer, which exposes the tail. A 27G disposable needle (Terumo Co., Tokyo, Japan) was inserted about 6 mm into a tail vein 2 cm from the tip of the tail. Immediately after the operation, sheets of filter paper were placed under the injury site every 15 sec to absorb the blood, and the time point at which no blood was observed on the filter paper was regarded as the bleeding time."}, "[5]": {"assay": "Plasma concentration of K-134 in mice", "format": "in vivo, mouse", "settings": "male ICR mice, 10 min after administration, n = 6; for concentration at 10 min: mouse, plasma", "protocol": "We also measured plasma concentration of K-134 at 10 min after a single oral administration of K-134 to male ICR mice (Japan SLC Inc., 5 weeks old)."}, "[6]": {"tested_on": "platelet aggregation ex vivo", "set-up": "method as in PMID 22269153", "settings": "rats, single administration 30 mg/kg; cited from earlier work"}, "[7]": {"set-up": "method as in PMID 22269153", "settings": "cited from earlier work"}},
  "note": "Where two headings read alike, the source gives them in different places.",
  "data": [
    {"smiles": "O=C1CCc2cc(OCCCCc3nnnn3C3CCCCC3)ccc2N1", "note": "[cilostazol]", "values": [
      {"measurement": "inhibition at 300 mg/kg", "setting": "[1]; read-out: inhibition of ADP-induced platelet aggregation ex vivo", "value": 27, "unit": "%"},
      {"measurement": "inhibition at 300 mg/kg", "setting": "[1]; read-out: inhibition of collagen-induced platelet aggregation ex vivo", "value": 50, "unit": "%"},
      {"measurement": "Tmax", "setting": "[2]; male, SD, rat, plasma, po, 300 mg/kg, read-out: Tmax", "value": "> 3", "unit": "h"},
      {"measurement": "Cmax", "setting": "[2]; rat, plasma", "value": 2400, "unit": "nM"},
      {"measurement": "half-life", "setting": "[2]; rat, plasma", "value": 324, "unit": "min"},
      {"measurement": "AUC(0-t)", "setting": "[2]; rat, plasma, read-out: AUC0-24h", "value": 30.1, "unit": "µM·h"},
      {"measurement": "Tmax", "setting": "[2]", "value": 5.8, "unit": "h"},
      {"measurement": "Cmax", "setting": "[3]; converted from µg/L, read-out: Cmax", "value": 1690, "unit": "nM"},
      {"measurement": "AUC0–72 h", "setting": "[3]; converted from µg/L·h", "value": 21.89, "unit": "µM·h"},
      {"measurement": "AUC0–72 h", "setting": "[3]", "value": "about 8087 µg/L·h"},
      {"measurement": "Cmax", "setting": "[3]", "value": "about 625 µg/L"}
    ]},
    {"smiles": "O=C(NCCCOc1ccc2[nH]c(=O)ccc2c1)N(C1CC1)[C@@H]1CCCC[C@H]1O", "note": "[K-134]", "values": [
      {"measurement": "IC50", "setting": "[4]; ADP, read-out: IC50, mouse platelet aggregation induced by ADP", "value": 6.7, "unit": "µM"},
      {"measurement": "IC50", "setting": "[4]; collagen, read-out: IC50, mouse platelet aggregation induced by collagen", "value": 5.5, "unit": "µM"},
      {"measurement": "bleeding time", "setting": "bleeding time", "value": "106 ± 5", "unit": "s"},
      {"measurement": "Plasma concentration of K-134", "setting": "[5]; 30 mg/kg single oral, 30 mg/kg", "value": "13.6 ± 2.3", "unit": "µM"},
      {"measurement": "concentration at 10 min", "setting": "[5]; 1 mg/kg single oral", "value": 400, "unit": "nM"},
      {"measurement": "concentration at 10 min", "setting": "[5]; 3 mg/kg single oral", "value": "1100 ± 200", "unit": "nM"},
      {"measurement": "concentration at 10 min", "setting": "[5]; 10 mg/kg single oral", "value": "4300 ± 600", "unit": "nM"},
      {"measurement": "concentration at 10 min", "setting": "[5]; 30 mg/kg single oral", "value": "13600 ± 2300", "unit": "nM"},
      {"measurement": "inhibition of ADP-induced platelet aggregation ex vivo", "setting": "[6]", "value": "about 55%"},
      {"measurement": "inhibition of collagen-induced platelet aggregation ex vivo", "setting": "[6]", "value": "~79", "unit": "%"},
      {"measurement": "time to plasma peak levels", "setting": "[7]; oral administration, conscious male SD rats under fed conditions", "value": "1 to 2", "unit": "h"},
      {"measurement": "half-life (T1/2)", "setting": "[7]; rats, 10 mg/kg", "value": "about 2 h"}
    ]}
  ]
}
